Positions of bridges follow the written chain, without caps; N, C: chain ends. Residues, ends and D or L forms follow the SMILES beside them.

The values below come from publication PMC7230940 (Marine Drugs, 2020).

The experiment concerns the target T1, rat α6/α3β2β3 nAChRs (Rattus norvegicus, UniProt P04757+P12390+P43143).
T1 construct: remaining part of the rat nAChR α3 subunit (Chrna3, UniProt P04757 by own knowledge), fused after the α6 extracellular portion; expressed in transfected cells; host or cells: Xenopus oocytes injected with in vitro transcribed cRNA
It counts as cell-based.

T1 sequence (P04757 whole entry, looked up, the tested form may be a part): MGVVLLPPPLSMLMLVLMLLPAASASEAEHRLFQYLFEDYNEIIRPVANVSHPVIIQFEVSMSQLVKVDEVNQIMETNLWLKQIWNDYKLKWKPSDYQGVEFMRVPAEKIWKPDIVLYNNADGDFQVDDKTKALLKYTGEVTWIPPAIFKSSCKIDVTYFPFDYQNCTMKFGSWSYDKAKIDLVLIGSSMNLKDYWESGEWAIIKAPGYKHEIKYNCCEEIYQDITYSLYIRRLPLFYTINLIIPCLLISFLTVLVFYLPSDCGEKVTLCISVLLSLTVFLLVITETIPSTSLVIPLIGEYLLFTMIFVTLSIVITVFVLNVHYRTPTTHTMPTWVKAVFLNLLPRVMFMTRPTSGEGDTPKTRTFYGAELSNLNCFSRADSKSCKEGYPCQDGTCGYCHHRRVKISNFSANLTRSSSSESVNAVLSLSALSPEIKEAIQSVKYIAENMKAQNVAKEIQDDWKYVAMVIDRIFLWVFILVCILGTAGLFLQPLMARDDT
T1 sequence (P12390 whole entry, looked up, the tested form may be a part): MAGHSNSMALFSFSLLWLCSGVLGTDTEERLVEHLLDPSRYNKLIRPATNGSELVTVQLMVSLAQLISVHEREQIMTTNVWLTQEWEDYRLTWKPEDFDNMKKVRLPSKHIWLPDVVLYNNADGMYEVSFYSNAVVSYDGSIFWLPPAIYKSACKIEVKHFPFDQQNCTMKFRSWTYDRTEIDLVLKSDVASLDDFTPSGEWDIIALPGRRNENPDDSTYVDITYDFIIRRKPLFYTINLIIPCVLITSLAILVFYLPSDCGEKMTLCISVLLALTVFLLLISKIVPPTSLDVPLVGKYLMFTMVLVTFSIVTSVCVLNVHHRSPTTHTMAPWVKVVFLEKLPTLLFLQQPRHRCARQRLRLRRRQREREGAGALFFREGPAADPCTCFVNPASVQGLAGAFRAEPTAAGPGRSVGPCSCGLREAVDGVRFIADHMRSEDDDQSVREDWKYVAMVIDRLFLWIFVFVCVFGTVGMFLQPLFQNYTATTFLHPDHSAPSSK
T1 sequence (P43143 whole entry, looked up, the tested form may be a part): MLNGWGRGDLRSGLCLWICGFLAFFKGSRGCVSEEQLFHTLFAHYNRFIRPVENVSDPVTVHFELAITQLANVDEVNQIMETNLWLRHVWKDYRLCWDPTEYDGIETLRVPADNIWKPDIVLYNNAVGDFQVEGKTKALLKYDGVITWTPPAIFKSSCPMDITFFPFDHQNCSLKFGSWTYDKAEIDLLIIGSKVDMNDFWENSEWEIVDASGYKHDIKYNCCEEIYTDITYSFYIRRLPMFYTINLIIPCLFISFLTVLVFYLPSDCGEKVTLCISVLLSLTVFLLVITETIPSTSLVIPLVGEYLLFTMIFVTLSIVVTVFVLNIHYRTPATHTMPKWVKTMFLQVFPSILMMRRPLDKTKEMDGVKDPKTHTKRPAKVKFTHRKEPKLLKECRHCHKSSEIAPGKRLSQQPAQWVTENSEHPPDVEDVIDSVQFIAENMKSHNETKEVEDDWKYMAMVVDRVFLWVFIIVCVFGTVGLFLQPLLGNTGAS

Consider `CC(C)C[C@@H]1NC(=O)[C@H](CC(=O)O)NC(=O)[C@@H]2CCCN2C(=O)[C@H](Cc2c[nH]cn2)NC(=O)[C@H](CCCCN)NC(=O)[C@H](CC(N)=O)NC(=O)[C@H](CCCNC(=N)N)NC(=O)[C@@H]2CSSC[C@@H]3NC(=O)CNC(=O)CNC(=O)[C@H](C)NC(=O)[C@H](C)NC(=O)CNC(=O)CNC(=O)[C@H](CSSC[C@H](NC3=O)C(=O)N[C@@H](CO)C(=O)N[C@@H](CC(=O)O)C(=O)N3CCC[C@H]3C(=O)N3CCC[C@H]3C(=O)N2)NC1=O` [cTxIB-5] (cyclo(AAGGCCSDPPCRNKHPDLCGG); disulfide 5-11, 6-19), for which the “inhibition of α6β2* nAChRs” value is listed as about 42%.

Take `CC(C)C[C@@H]1NC(=O)[C@H](CC(=O)O)NC(=O)[C@@H]2CCCN2C(=O)[C@H](Cc2c[nH]cn2)NC(=O)[C@H](CCCCN)NC(=O)[C@H](CC(N)=O)NC(=O)[C@H](CCCNC(=N)N)NC(=O)[C@@H]2CSSC[C@H](NC(=O)CN)C(=O)N[C@@H](CSSC[C@@H](C(N)=O)NC1=O)C(=O)N[C@@H](CO)C(=O)N[C@@H](CC(=O)O)C(=O)N1CCC[C@H]1C(=O)N1CCC[C@H]1C(=O)N2` [TxIB, α-Conotoxin TxIB, reference compound] (H-GCCSDPPCRNKHPDLC-NH2; disulfide 2-8, 3-16): the “inhibition of α6β2* nAChRs” value is on record as 42%.

For `CC(C)C[C@@H]1NC(=O)[C@H](CC(=O)O)NC(=O)[C@@H]2CCCN2C(=O)[C@H](Cc2c[nH]cn2)NC(=O)[C@H](CCCCN)NC(=O)[C@H](CC(N)=O)NC(=O)[C@H](CCCNC(=N)N)NC(=O)[C@@H]2CSSC[C@@H]3NC(=O)CNC(=O)CNC(=O)[C@H](C)NC(=O)[C@H](C)NC(=O)CNC(=O)[C@H](C)NC(=O)CNC(=O)[C@H](CSSC[C@H](NC3=O)C(=O)N[C@@H](CO)C(=O)N[C@@H](CC(=O)O)C(=O)N3CCC[C@H]3C(=O)N3CCC[C@H]3C(=O)N2)NC1=O` [cTxIB-6] (cyclo(AAGGCCSDPPCRNKHPDLCGAG); disulfide 5-11, 6-19), the “inhibition of α6β2* nAChRs” value is reported as about 48%.

Take `CC(C)C[C@@H]1NC(=O)[C@H](CC(=O)O)NC(=O)[C@@H]2CCCN2C(=O)[C@H](Cc2c[nH]cn2)NC(=O)[C@H](CCCCN)NC(=O)[C@H](CC(N)=O)NC(=O)[C@H](CCCNC(=N)N)NC(=O)[C@@H]2CSSC[C@@H]3NC(=O)CNC(=O)CNC(=O)[C@H](C)NC(=O)[C@H](C)NC(=O)CNC(=O)[C@H](CSSC[C@H](NC3=O)C(=O)N[C@@H](CO)C(=O)N[C@@H](CC(=O)O)C(=O)N3CCC[C@H]3C(=O)N3CCC[C@H]3C(=O)N2)NC1=O` [cTxIB-4] (cyclo(AAGGCCSDPPCRNKHPDLCG); disulfide 5-11, 6-19): the “inhibition of α6β2* nAChRs” value is recorded as “about 35%”.

Turning to `CC(C)C[C@@H]1NC(=O)[C@H](CC(=O)O)NC(=O)[C@@H]2CCCN2C(=O)[C@H](Cc2c[nH]cn2)NC(=O)[C@H](CCCCN)NC(=O)[C@H](CC(N)=O)NC(=O)[C@H](CCCNC(=N)N)NC(=O)[C@@H]2CSSC[C@@H]3NC(=O)CNC(=O)CNC(=O)[C@H](C)NC(=O)CNC(=O)[C@H](C)NC(=O)[C@H](C)NC(=O)CNC(=O)CNC(=O)[C@H](CSSC[C@H](NC3=O)C(=O)N[C@@H](CO)C(=O)N[C@@H](CC(=O)O)C(=O)N3CCC[C@H]3C(=O)N3CCC[C@H]3C(=O)N2)NC1=O` [cTxIB-7] (cyclo(AAGAGGCCSDPPCRNKHPDLCGG); disulfide 7-13, 8-21), the “inhibition of α6β2* nAChRs” value is listed as about 41%.
